Results on 9 compounds are retold here after patent publication US9580430B2, “9H-pyrimido[4,5-B]indoles and related analogs as BET bromodomain inhibitors” (THE REGENTS OF THE UNIVERSITY OF MICHIGAN, priority 2014, dated 2017).

Like-named read-outs stand apart in the source and are kept apart here. Bounds are passed on as bounds.

One series concerns MOLM-13. Briefly: Cell growth inhibition, MOLM-13 leukemia cells (CellTiter-Glo). It counts as cell-based. The settings on record: Homo sapiens, MOLM-13, 96 h; 4 days; read-out: IC50 (nM) MOLM-13 Cell Line (CellTiter-Glo assay). The gist of the method: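 Luminescent ATP-based viability (CellTiter-Glo, 10-20 min at room temperature) in compound-treated MOLM-13 cells; the half-maximal inhibitory concentration was calculated from the readout.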

Another series deals with T1, recombinant BRD4 BD2 (Homo sapiens, UniProt O60885).
T1 construct: for recombinant BRD4 BD1 and BRD4 BD2 proteins
As to the kind of experiment: Competitive fluorescence-polarization (FP) binding assay, BRD4 BD2. As to IC50 (nM) BRD4 BD2: probe 1.5 nM. Particulars: for Ki: read-out: Binding affinities (FP) BRD4BD2 Ki. The gist of the method: (§1)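 Buffer: 100 mM potassium phosphate, pH 6.5, 0.01% Triton X-100; compounds added in buffer with 40% ethylene glycol to preformed complex of fluorescent probe with BRD4 BD1 (10 nM final) or BD2 (6 nM final). After 30 min at room temperature, polarization read. IC50 from nonlinear fits of competition curves, with Ki.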

The subject of series [1] is VCaP prostate cancer cells. As to the kind of experiment: Cell growth inhibition, VCaP prostate cancer cells (Cell-Titer GLO). It counts as cell-based. The settings on record: for IC50: Homo sapiens, VCaP, 96 h incubation, read-out: IC50 (nM) VCaP Cell Line (CellTiter-Glo assay). The protocol:
For prostate cancer cell lines, VCaP prostate cancer cells were grown in DMEM with Glutamax (Gibco) supplemented with 10% FBS (Invitrogen) in 5% CO2 cell culture incubator. All cell lines were tested and found to be free of mycoplasma contamination. Cells were seeded in 96-well plates at 2,000-10,000 cells per well (optimum density for growth) in a total volume of […] media containing 10% FBS. Serially diluted compounds in […] media were added to the cells 12 h later. […] The values were normalized and IC50 was calculated using GraphPad Prism software.
Cells were seeded in 96-well plates at 2000-10,000 cells/well (optimum density for growth) in a total volume of 100 μl media containing 10% FBS. Serially diluted compounds in 100 μl media were added to the cells 12 h later. Following 96 h. incubation, cell viability was assessed by Cell-Titer GLO (Promega). The values were normalized and IC50 was calculated using GraphPad Prism software. […] After 12 days cells were fixed with methanol, stained with crystal violet and photographed. For colorimetric assays, the stained wells were treated with 500 μl 10% acetic acid and the absorbance was measured at 560 nm using a spectrophotometer.

Another series concerns MDA-MB-436. Briefly: Cell growth inhibition, MDA-MB-436 breast cancer cells (WST-8). It counts as cell-based. Particulars: Homo sapiens, 4 days. A digest of the protocol:
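IC50 was computed from WST-8-based cell counting in MDA-MB-436 cells, with absorbance read at 450 nm.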

A further series has as its target T2, recombinant BRD4 BD1 (Homo sapiens, UniProt O60885).
T2 construct: for recombinant BRD4 BD1 and BRD4 BD2 proteins
As to the kind of experiment: Competitive fluorescence-polarization (FP) binding assay, BRD4 BD1. As to IC50 (nM) BRD4 BD1: probe 1.5 nM. The settings on record: for Ki: read-out: Binding affinities (FP) BRD4BD1 Ki. A digest of the protocol:
as §1

The next series relates to BRD2/3/4. Briefly: ChIP-seq of BRD2/3/4 in VCaP cells. It counts as cell-based. Particulars: 500 nM, 12 h. The protocol:
(§2) The ChIP assays for BRD2, BRD3, BRD4, AR, RNA PolII, ERG and H3K27ac were performed using HighCell ChIP kit (Diagenode) according to manufacturer's protocol. […] Next, cells were cross-linked for 10 min. with 1% formaldehyde. […] Chromatin equivalent to 5×10^6 cells were used for ChIP using different antibodies. ChIP DNA was isolated (IPure Kit, Diagenode) from samples by incubation with the antibody at 4° C. overnight followed by wash and reversal of cross-linking. The ChIP-seq sample preparation for sequencing was performed according to the manufacturer's instructions (Illumina). […] A single A-base was added to fragment ends by Klenow fragment (3′ to 5′ exo minus; NEB) followed by ligation of Illumina adaptors (Quick ligase, NEB). The adaptor-modified DNA fragments were enriched by PCR using the Illumina Barcode primers and Phusion DNA polymerase (NEB). PCR products were size selected using 3% NuSieve agarose gels (Lonza) followed by gel extraction using QIAEX II reagents (QIAGEN). Libraries were quantified with the Bioanalyzer 2100 (Agilent) and sequenced on the Illumina HiSeq 2000 Sequencer (100 nucleotide read length).

The next series deals with VCaP tumor xenograft. The protocol:
(§3) Four week-old male SCID C.B17 mice were procured from a breeding colony at University of Michigan. All procedures involving mice were approved by the University Committee on Use and Care of Animals (UCUCA) at the University of Michigan and conform to all regulatory standards. Mice were anesthetized using 2% Isoflurane (inhalation) and 2×10^6 VCaP prostate cancer cells suspended in 100 μl of PBS with 50% Matrigel (BD Biosciences) were implanted subcutaneously into the dorsal flank on both sides of the mice. […] Growth in tumor volume was recorded using digital calipers and tumor volumes were estimated using the formula (π/6) (L×W^2), where L=length of tumor and W=width. Loss of body weight during the course of the study was also monitored. At the end of the studies mice were sacrificed and tumors extracted and weighed. Additionally, femur bone marrow, liver and spleen were harvested to examine spontaneous metastasis by detecting human-Alu sequence. […] All procedures involving mice were approved by the University Committee on Use and Care of Animals (UCUCA) at the University of Michigan and conform to all regulatory standards.

A further series has as its system AR. As to the kind of experiment: ChIP-seq of AR in DHT-stimulated VCaP cells. It counts as cell-based. The settings on record: DHT 10 nM plus JQ1 500 nM, MDV3100 10 μM or Bicalutamide 25 μM, FIG. 17. The protocol: as §2
For enrichment plots shown in FIGS. 17, 19 and 20, identified peaks for each sample are centered by peak summit and average coverage per million was counted within 1500 bp relative to the peak center.

The subject of a further series is VCaP xenograft model. As to the kind of experiment: Spontaneous metastasis in the VCaP xenograft model (human Alu qPCR). It counts as in vivo, mice. The settings on record: femur, liver and spleen; JQ1 50 mg/kg, MDV3100 10 mg/kg. The protocol:
as §3

In the next series the test system is LNCaP. Briefly: Cell growth inhibition, LNCaP prostate cancer cells (Cell-Titer GLO). It counts as cell-based. Particulars: Homo sapiens, read-out: Cellular data LNCaP IC50.
Where [2] appears, read: competitive FP assay, protein 6 nM, probe […], read-out: IC50 (nM) BRD4 BD2.
Where [3] appears, read: MDA-MB-436, 96 h, read-out: IC50 (nM) MDA-MB-436 Cell Line (WST assay).
Setting [4] is: competitive FP assay, protein 10 nM, probe […], read-out: IC50 (nM) BRD4 BD1.
The mark [5] stands for this setting: FP competitive binding, BRD4 BD2, read-out: Binding affinities (FP) BRD4BD2 IC50.
Setting [6] is: FP competitive binding, BRD4 BD2.
Setting [7] is: 96 h, MDA-MB-436 cells, read-out: Cellular data MDA-MB-436 IC50.
Setting [8] is: FP competitive binding, BRD4 BD1, read-out: Binding affinities (FP) BRD4BD1 IC50.
Where [9] appears, read: FP competitive binding, BRD4 BD1.

In the case of `COc1cc2c(cc1-c1c(C)noc1C)[nH]c1nc(C)nc(Nc3c4c(nn3C(C)C)CCC4)c12` [Cpd. No. 137, 7-(3,5-Dimethylisoxazol-4-yl)-N-(2-isopropyl-2,4,5,6-tetrahydrocyclopenta[c]pyrazol-3-yl)-6-methoxy-2-methyl-9H-pyrimido[4,5-b]indol-4-amine], the IC50 worked out at 4.3 nM in the series with MOLM-13; 1.2 nM at recombinant BRD4 BD2 (setting [2]); 23.4 nM in series [1]; 11.3 nM with MDA-MB-436 (setting [3]); 4.5 nM at recombinant BRD4 BD1 (setting [4]).
Regarding `COc1cc2c(cc1-c1c(C)noc1C)[nH]c1nc(C)nc(Nc3c(C)c(C)nn3C(C)(C)C)c12` [Cpd. No. 185, N-(1-(tert-butyl)-3,4-dimethyl-1H-pyrazol-5-yl)-7-(3,5-dimethylisoxazol-4-yl)-6-methoxy-2-methyl-9H-pyrimido[4,5-b]indol-4-amine], the IC50 in the series on MOLM-13 amounted to 17 nM; at recombinant BRD4 BD2 (setting [2]), 12.3 nM; in [1], 64.7 nM; in the series on MDA-MB-436 (setting [3]), 71 nM; on recombinant BRD4 BD1 (setting [4]), 4.9 nM.
As to `CCNC(=O)C[C@@H]1N=C(c2ccc(Cl)cc2)c2cc(OC)ccc2-n2c(C)nnc21` [I-BET762], the “recruitment of BRD2/3/4 to the chromatin” value with BRD2/3/4 was “reduction in the recruitment”.
For the compound `CNC(=O)c1ccc(N2C(=S)N(c3ccc(C#N)c(C(F)(F)F)c3)C(=O)C2(C)C)cc1F` [MDV3100, enzalutamide], in the series with VCaP tumor xenograft (VCaP tumor-bearing mice, JQ1 50 mg/kg, MDV3100 10 mg/kg, 5 days/week, FIGS. 23-25), the tumor volume/weight entry is “less pronounced effect”. Besides, the tolerability result in the series on VCaP tumor xenograft (mouse, in vivo) is given as “well tolerated”. Further, in series [1] (8 days, FIG. 22), the “VCaP cell viability in vitro” value is reported as “Marginal cell death”. In addition, the “recruitment of AR to target loci” value with AR was “markedly attenuated”. Moreover, the spontaneous metastasis entry in the series with VCaP xenograft model was “evidence of metastases in femur and liver”.
Regarding `CCn1nc2c(c1Nc1nc(C)nc3[nH]c4cc(-c5c(C)noc5C)c(OC)cc4c13)CCC2` [Cpd. No. 141, 7-(3,5-Dimethylisoxazol-4-yl)-N-(2-ethyl-2,4,5,6-tetrahydrocyclopenta[c]pyrazol-3-yl)-6-methoxy-2-methyl-9H-pyrimido[4,5-b]indol-4-amine], the IC50 with MOLM-13 came to 1.6 nM; at recombinant BRD4 BD2 (setting [2]), 1.1 nM; in [1], 19.3 nM; in the series with MDA-MB-436 (setting [3]), 13.6 nM; on recombinant BRD4 BD1 (setting [4]), 4.6 nM.
On to `CCn1nc(C2CC2)cc1Nc1nc(C)nc2[nH]c3cc(-c4c(C)noc4C)c(OC)cc3c12` [Cpd. No. 144, N-(3-Cyclopropyl-1-ethyl-1H-pyrazol-5-yl)-7-(3,5-dimethylisoxazol-4-yl)-6-methoxy-2-methyl-9H-pyrimido[4,5-b]indol-4-amine], for which the IC50 in the series with MOLM-13 was 3 nM; on recombinant BRD4 BD2 (setting [2]), 0.7 nM; in series [1], 53.8 nM; in the series on MDA-MB-436 (setting [3]), 14.5 nM; on recombinant BRD4 BD1 (setting [4]), 2.1 nM.
For the compound `CCn1nc(C2CC2)cc1Nc1nc(N)nc2[nH]c3cc(-c4c(C)noc4C)c(OC)cc3c12` [Cpd. No. 290, N4-(3-cyclopropyl-1-ethyl-1H-pyrazol-5-yl)-7-(3,5-dimethylisoxazol-4-yl)-6-methoxy-9H-pyrimido[4,5-b]indole-2,4-diamine], the IC50 was 4.5 nM on recombinant BRD4 BD2 (setting [5]), 12 nM in the series with LNCaP, 19 nM with MDA-MB-436 (setting [7]) and 4.8 nM at recombinant BRD4 BD1 (setting [8]). Also, the Ki on recombinant BRD4 BD2 (setting [6]) and at recombinant BRD4 BD1 (setting [9]) was below 1 nM each time.
For the compound `COCCc1nc(Nc2cc(C3CC3)nn2C)c2c(n1)[nH]c1cc(-c3c(C)noc3C)c(OC)cc12` [Cpd. No. 287, N-(3-cyclopropyl-1-methyl-1H-pyrazol-5-yl)-7-(3,5-dimethylisoxazol-4-yl)-6-methoxy-2-(2-methoxyethyl)-9H-pyrimido[4,5-b]indol-4-amine], the IC50 at recombinant BRD4 BD2 (setting [5]) turned out to be 1.4 nM; in the series on LNCaP it was 81 nM; with MDA-MB-436 (setting [7]), 58 nM; at recombinant BRD4 BD1 (setting [8]) it was 3.1 nM. Also, the inhibition constant (Ki) at recombinant BRD4 BD2 (setting [6]) and at recombinant BRD4 BD1 (setting [9]) was below 1 nM in each case.
As to `COc1cc2c(cc1-c1c(C)noc1C)[nH]c1nc(N)nc(Nc3c4c(nn3C(C)C)CCC4)c12` [Cpd. No. 292, 7-(3,5-dimethylisoxazol-4-yl)-N4-(2-isopropyl-2,4,5,6-tetrahydrocyclopenta[c]pyrazol-3-yl)-6-methoxy-9H-pyrimido[4,5-b]indole-2,4-diamine], the IC50 on recombinant BRD4 BD2 (setting [5]) was determined as 2.3 nM; with LNCaP it was 7 nM; with MDA-MB-436 (setting [7]), 12 nM; on recombinant BRD4 BD1 (setting [8]), 2 nM. Moreover, the Ki at recombinant BRD4 BD2 (setting [6]) and at recombinant BRD4 BD1 (setting [9]) was below 1 nM in each case.
